The results in this text go back to patent EP0199247A2, “Cytostatic active medicine containing glycidyl amines” (priority 1985, dated 1986).

This test concerns Tumorart P 388 (Leukämie). Nature of the test: P 388 leukemia survival test in mice (NCI protocol 1200). The test is classed as in vivo, Mäusen. Conditions: i.p., 9-day treatment; for Verlängerungsrate T/C: P 388 i.p. 10^6 Zellen/Maus, untreated mean survival 10 days; for Zahl der Tiere aus jeweils einer Gruppe von 6 die 30 Tage überlebten: value in brackets, group of 6. The text has this: Die nachfolgenden Versuche wurden durchgeführt nach Tcstvorschriften des National Canccr Institute Bethesda, Maryland 200014, veröffentlicht in "Cancer Chemotherany Renorts" Part. 3, Sept. 1972, Vol. 3, Nr. 2. Als Wirksubstanz wurde Triglycidylamin sowie 3-Chlorpropyl-diglycidylamin des vorstehenden Beisniels 4 verwendet. Die Substanz wurde als wäßrige 1 %ige Injektionslösung unmittelbar vor der Applikation frisch hergestellt.
Bei Mäusen wurde gemäß Protokoll 1200 (S. 91 c) die Tumorart P 388 (Leukämie) i.p. mit 10^6 Zellen/Maus gesetzt. Die unbehandelten Tiere hatten eine mittlere Überlebensdauer von 10 Tagen.
Mit den behandelten Testtieren, die einer 9-tägigen i.p. Behandlung mit der in Tabelle 1 angesehenen Dosis unterworfen wurden, wurde eine signifikante Verlängerung der Lebensdauer gegenüber der mittleren Überlebensdauer der nicht mit dem Wirkstoff behandelten Tiere erzielt. Die Verlängerunzstate T/C in Abhängigkeit von der Dosierung des Wirkstoffes ist in der Tabelle 1 zusammengestellt. Die Werte in Klammern bedeuten die Zahl der Tiere aus jeweils einer Gruppe von 6 die 30 Tage üherlebten.

Turning to `C1OC1CN(CC1CO1)CC1CO1` (stereo not drawn) [Triglycidylamin], the “Verlängerungsrate T/C” value reads like this: (Dosis 0,48 mg/kg) 148%; (Dosis 0,97 mg/kg) 174%; (Dosis 1,87 mg/kg) 252%; (Dosis 3,75 mg/kg) 303%. Besides, the “Zahl der Tiere aus jeweils einer Gruppe von 6 die 30 Tage überlebten” value (Dosis 3,75 mg/kg) came out at 6.
In the case of `ClCCCN(CC1CO1)CC1CO1` (stereo not drawn) [3-Chlorpropyl-diglycidylamin], the “Verlängerungsrate T/C” value was found to be 179% (Dosis 1,87 mg/kg), 181% (Dosis 3,75 mg/kg) and 303% (Dosis 7,50 mg/kg). Moreover, the “Zahl der Tiere aus jeweils einer Gruppe von 6 die 30 Tage überlebten” value (Dosis 7,50 mg/kg) turned out to be 3.
